Data from PMC7179450, “Primary Human Hepatocytes, But not HepG2 or Balb/c 3T3 Cells, Efficiently Metabolize Salinomycin and Are Resistant to Its Cytotoxicity” (Molecules, 2020).
Read-outs that look alike come from different tables or passages of the source.

What was measured:
[1] = tested on: primary human hepatocytes (PHH); assay: MTT assay, cytotoxicity in primary human hepatocytes; format: cell-based; settings: Hepatocyte, mean ± SEM, n = 3, read-out: EC50 (effective concentration)
Procedure: Cryopreserved PHH were purchased from the Primacyt GmbH (Schwerin, Germany). Two different lots were chosen based on CYP activity. The donor was a person. The post-thaw viability was 94.6% for lot HH160531 (used in two repetitions) and 85.0% for lot HH130805. The initial cell viability was determined with the trypan blue exclusion test. The cells were thawed and purified using the Plating and Thawing Kit (Primacyt GmbH). Purified hepatocytes were resuspended in Hepatocyte Plating Medium (Primacyt GmbH) and seeded on collagen-coated 96-well plates at a density of 9 × 10^5 cell/mL and incubated at 37 °C with 5% CO2. After 6 h of incubation, the medium was removed and the cells were washed with PBS. Then Human Hepatocyte Maintenance Medium (HHMM) (Primacyt GmbH) with the studied drugs was added to hepatocytes (100 µL/well). […]
The concentration ranges of the drugs were chosen according to their solubility and their plasma level. […] The cytotoxicity was assessed after 24 and 48 h of exposure of cell lines or after 12 and 24 h exposure of PHH. […]
(§1) The metabolic activity of living cells was assessed by measuring the activity of dehydrogenases. […] The plate was shaken for 15 min at room temperature and transferred to a microplate reader to measure the absorbance at 570 nm, using a blank as a reference. Cytotoxicity was expressed as a percentage of the negative control (0.1% or 0.2% DMSO).

[2] = tested on: primary human hepatocytes (PHH); assay: NRU assay (neutral red uptake, lysosomal activity) in primary human hepatocytes; format: cell-based; settings: for EC50: Homo sapiens, Hepatocyte, mean ± SEM, n = 3, read-out: EC50 (effective concentration)
Procedure: Cryopreserved PHH were purchased from the Primacyt GmbH (Schwerin, Germany). Two different lots were chosen based on CYP activity. The donor was a person. The post-thaw viability was 94.6% for lot HH160531 (used in two repetitions) and 85.0% for lot HH130805. The initial cell viability was determined with the trypan blue exclusion test. The cells were thawed and purified using the Plating and Thawing Kit (Primacyt GmbH). Purified hepatocytes were resuspended in Hepatocyte Plating Medium (Primacyt GmbH) and seeded on collagen-coated 96-well plates at a density of 9 × 10^5 cell/mL and incubated at 37 °C with 5% CO2. After 6 h of incubation, the medium was removed and the cells were washed with PBS. Then Human Hepatocyte Maintenance Medium (HHMM) (Primacyt GmbH) with the studied drugs was added to hepatocytes (100 µL/well). The culture conditions were kept according to the manufacturer’s protocol.
(§2) The concentration ranges of the drugs were chosen according to their solubility and their plasma level. Each drug was dissolved in DMSO. The final concentration of DMSO was 0.1% or 0.2% in the medium for both samples and corresponding controls. […] All drug solutions in medium were freshly prepared and protected from light. SAL was tested in seven concentrations from 0.39 to 25 µg/mL. Tiamulin was added in two concentrations (1 and 10 µg/mL) or just one concentration (1 µg/mL) to cell lines or human hepatocytes, respectively. Prednisolone was tested in one concentration—1 µg/mL independent of the type of cells. […] The cytotoxicity was assessed after 24 and 48 h of exposure of cell lines or after 12 and 24 h exposure of PHH. […]
(§3) The assay, based on staining of living cells by neutral red (NR), was performed according to the protocol described by Borenfreund and Puerner. […] After 10 min of shaking, the absorbance of the dissolved NR was measured at 540 nm using a blank as a reference. Cytotoxicity was expressed as a percentage of the negative control (0.1% or 0.2% DMSO).

Balb/c 3T3 cells = assay: NRU assay in Balb/c 3T3; format: cell-based, mouse; settings: for EC50: Mus musculus, read-out: EC50 (effective concentration)
Procedure: The HepG2 cell line was purchased from the American Type Culture Collection (ATCC® HB-8065™). The cells were cultured in Minimum Essential Medium Eagle (MEME) (Sigma–Aldrich Co. (St. Louis, MO, USA)). Normal murine embryonic fibroblasts, Balb/c 3T3 clone A31 cell line (gift from Department of Swine Diseases of the National Veterinary Research Institute in Pulawy) was cultured in Dulbecco’s Modified Eagle’s Medium (DMEM) (Invitrogen Corporations (Paisley, UK)). The media were supplemented with 10% BCS (Balb/c 3T3), 10% FBS (HepG2), 1% L-glutamine, and 1% antibiotic solution. The cells were maintained in 75 cm^2 cell culture flasks in humidified incubator at 37 °C, in an atmosphere of 5% CO2. The medium was refreshed every two or three days and the cells were trypsinized by 0.25% trypsin–0.02% EDTA after reaching 70–80% confluence. The initial cell viability was determined with the trypan blue exclusion test. Single cell suspensions were prepared and adjusted to a density of 2 × 10^5 cell/mL (HepG2) and 1 × 10^5 cell/mL (Balb/c 3T3). The cell suspension was transferred to 96-well plates (100 µL/well) and incubated for 24 h before exposure to the studied drugs.
as §2, with “µg/mL.” for “µg/mL. Tiamulin was added in two concentrations (1 and 10 µg/mL) or just one concentration (1 µg/mL) to cell lines or human hepatocytes, respectively. Prednisolone was tested in one concentration—1 µg/mL independent of the type of cells.”
as §3

PHH = assay: Cytotoxicity battery (MTT, NRU, TPC, LDH) in PHH; format: cell-based, human; settings: well tolerated at lower concentrations
Procedure: as §2, §1
(§4) The assay, based on staining of living cells by neutral red (NR), was performed according to the protocol described by Borenfreund and Puerner. […] After 10 min of shaking, the absorbance of the dissolved NR was measured at 540 nm using a blank as a reference. […]

[3] = Cytotoxicity battery in fibroblasts; format: cell-based; settings: mouse, Balb/c 3T3 fibroblasts, inhibiting lysosomal and mitochondrial activity and synthesis of cellular proteins, read-out: cytotoxic concentrations
Procedure: as §2, §1, §4

dogs = settings: chronic toxicity study in dogs; cited from earlier work

Structure (SMILES): CC[C@@H](C(=O)[C@@H](C)[C@@H](O)[C@H](C)[C@@H]1O[C@@H]([C@@H](CC)C(=O)O)CC[C@@H]1C)[C@H]1O[C@]2(C=C[C@@H](O)[C@]3(CC[C@@](C)([C@H]4CC[C@](O)(CC)[C@H](C)O4)O3)O2)[C@H](C)C[C@@H]1C [SAL, salinomycin]
- EC50 ([1]; 12 h exposure): > 25 µg/mL
- EC50 ([1]; 24 h exposure): > 25 µg/mL
- EC50 ([2]; 12 h exposure): 20.4 ± 1.9 µg/mL
- EC50 ([2]; 24 h exposure): 19.8 ± 1.6 µg/mL
- concentration at which SAL first affected lysosomal activity ([2]; after 24 h (Figure S1)): 1.56 µg/mL
- lowest concentration with significant effect on lysosomal activity (Balb/c 3T3 cells; Balb/c 3T3, 24 h, SAL alone or in both drug combinations (Figure S3)): 0.39 µg/mL
- EC50 (Balb/c 3T3 cells; BALB/c3T3, 24 h): 0.6 ± 0.2 µg/mL
- EC50 (Balb/c 3T3 cells; BALB/c3T3, 48 h): < 0.39 µg/mL
- concentrations exerting toxic effects (PHH): > 10000 ng/mL
- EC50 [3]: 0.6 to 10 µg/mL
- NOAEL (No Observed Adverse Effect Level) (dogs): 500 µg/kg b.w.
